The supplement of paper PMC10307832

Experiments:
Test in all cases: relative viability (nuclei count vs DMSO), 5 days (fraction); higher = more cells survive
[1] = compound: CN(c1ncccc1CNc1nc(Nc2ccc3c(c2)CC(=O)N3)ncc1C(F)(F)F)S(C)(=O)=O + NC(=O)Nc1cc(-c2cccc(F)c2)sc1C(=O)N[C@H]1CCCNC1 [AZD7762] (partner 0.2 µM)
Method in brief: (§1)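 Values are medians from duplicate plates. Each reflects relative viability, defined as the nuclei count of treated wells over that of vehicle wells. Lung cancer cell lines in 1536-well plates were pin-tool dosed one day after seeding with one drug alone or with a fixed anchor-drug dose plus five library-drug doses (not always all listed) in √10 steps, then fixed, stained and imaged at 4× after 5 days.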

[2] = compound: CN(c1ncccc1CNc1nc(Nc2ccc3c(c2)CC(=O)N3)ncc1C(F)(F)F)S(C)(=O)=O + Nc1ncn([C@H]2C[C@H](O)[C@@H](CO)O2)c(=O)n1 [Decitabine] (partner 2 µM)
Method in brief: as §1

[3] = compound: CN(c1ncccc1CNc1nc(Nc2ccc3c(c2)CC(=O)N3)ncc1C(F)(F)F)S(C)(=O)=O + O=C(c1cc(Cc2n[nH]c(=O)c3ccccc23)ccc1F)N1CCN(C(=O)C2CC2)CC1 [Olaparib] (partner 8 µM)
Method in brief: as §1

[4] = compound: CN(c1ncccc1CNc1nc(Nc2ccc3c(c2)CC(=O)N3)ncc1C(F)(F)F)S(C)(=O)=O + CS(=O)(=O)CCNCc1ccc(-c2ccc3ncnc(Nc4ccc(OCc5cccc(F)c5)c(Cl)c4)c3c2)o1 [Lapatinib] (partner 2 µM)
Method in brief: as §1

Row | Cell Line | relative viability ([1]; first compound 0.01 µM) | relative viability ([1]; first compound 0.03162 µM) | relative viability ([1]; first compound 0.1 µM) | relative viability ([1]; first compound 0.3162 µM) | relative viability ([1]; first compound 1 µM) | relative viability ([2]; first compound 0.01 µM) | relative viability ([2]; first compound 0.03162 µM) | relative viability ([2]; first compound 0.1 µM) | relative viability ([2]; first compound 0.3162 µM) | relative viability ([2]; first compound 1 µM) | relative viability ([3]; first compound 0.01 µM) | relative viability ([3]; first compound 0.03162 µM) | relative viability ([3]; first compound 0.1 µM) | relative viability ([3]; first compound 0.3162 µM) | relative viability ([3]; first compound 1 µM) | relative viability ([4]; first compound 0.01 µM) | relative viability ([4]; first compound 0.03162 µM) | relative viability ([4]; first compound 0.1 µM) | relative viability ([4]; first compound 0.3162 µM) | relative viability ([4]; first compound 1 µM)
1 | NCI-H2347 | 0.818 | 0.654 | 0.782 | 0.733 | 0.685 | 0.655 | 0.598 | 0.587 | 0.593 | 0.57 | 0.598 | 0.546 | 0.525 | 0.515 | 0.443 | 1.04 | 1.01 | 0.88 | 0.863 | 0.833
2 | NCI-H2405 | 0.702 | 0.69 | 0.749 | 0.573 | 0.626 | 0.766 | 0.735 | 0.67 | 0.681 | 0.648 | 0.879 | 0.922 | 0.78 | 0.702 | 0.641 | 1.16 | 1.08 | 0.995 | 1.02 | 0.91
3 | NCI-H3122 | 1.04 | 1.09 | 0.981 | 0.978 | 1.03 | 0.445 | 0.423 | 0.395 | 0.429 | 0.403 | 0.658 | 0.65 | 0.604 | 0.568 | 0.574 | 1.02 | 1.08 | 1.01 | 0.956 | 0.876
4 | PC-3 [JPC-3] | 0.851 | – | 0.848 | 0.948 | 1.03 | 0.826 | – | 0.821 | 0.884 | 0.834 | 1.13 | – | 1.05 | 1.08 | 1.04 | 0.441 | 0.395 | 0.446 | 0.471 | 0.432
5 | PC-14 | 0.393 | 0.443 | 0.426 | 0.385 | 0.311 | 0.197 | 0.225 | 0.254 | 0.245 | 0.269 | 0.38 | 0.282 | 0.271 | 0.261 | 0.243 | 0.366 | 0.373 | 0.292 | 0.323 | 0.33
6 | RERF-LC-KJ | 0.89 | 1.08 | 1.03 | 1.04 | 1.07 | 0.651 | 0.71 | 0.645 | 0.793 | 0.764 | 0.983 | 0.945 | 0.97 | 0.849 | 0.927 | 0.926 | 0.988 | 0.854 | 0.886 | 0.91
